Experimental findings from a melting point compilation (Tetko et al.) are described below.

A word on the melting point: it is the temperature, or range, at which the solid turns liquid. In turn, `COc1ccc(C(=O)O)cc1OCCO` displayed a melting point of 190 to 192 °C.
Consider `CC1CCC(N2CC(C(=O)O)CC2=O)CC1` (centres undefined), for which the melting point is 143 to 145 °C.
Then `Cc1ccc2cc(CCl)c(Cl)nc2c1C`, with 109 to 111 °C; and `O=C(O)C1CCCN1S(=O)(=O)c1cccc([N+](=O)[O-])c1` (centres undefined), with 182 to 184 °C.
Then `CC(C)N1C2CCC1CC(O)C2` (centres undefined), with 90 to 92 °C; and `COC(=O)c1cc(C)ccc1N`, with 58 to 60 °C; and `CCC(C)NC(=O)C1CC(C)Nc2ccccc21` (centres undefined), with 121 to 123 °C.
As for `NS(=O)(=O)c1ccc2c(c1)CCN2`, the melting point lay within 162 to 166 °C.
Next, `CN(C)c1ccc(C(=O)O)nn1`: 167 to 169 °C; `CNC(=O)Nc1ccc(N)cc1`: 147 to 149 °C.
Regarding `O=C(O)CCCNc1ccc([N+](=O)[O-])cc1`, the melting point was in the range of 158 to 160 °C.
With `Cn1c(S)nc2ccccc21`, the melting point is 190 to 194 °C.
Next, `Cc1nn(-c2ccc(F)cc2F)c(C)c1CC(=O)O`: 163 to 165 °C.
Next, `NC(=S)NC1CC1`: 138 to 140 °C; `COc1c([N+](=O)[O-])ccc2[nH]ncc12`: 219 to 221 °C; `Cn1cnnc1-c1ccnc(N)c1`: 204 to 206 °C.
Then `CN(C)C(=O)CN1C(=O)C(=O)c2cc(Br)ccc21`, with 194 to 196 °C; and `O=C(O)c1cccc(-c2ccoc2)c1`, with 144 to 146 °C.
In turn, `O=C(O)c1ccc(N2CCOC2=O)cc1` yielded a melting point of 271 to 273 °C.
With `O=S(=O)(c1ccccc1)N1C2Cc3ccccc3C21` (centres undefined), the melting point lay in the range of 120 to 122 °C.
Then `Cc1nnc(-c2ccc(N)cc2)o1`, with 195 to 197 °C.
Then `CCc1c(C(=O)Nc2cc(S(=O)(=O)N(CC)CC)ccc2O)[nH]c(C)c1C(C)=O`, with 229 to 231 °C; and `OCc1cn(-c2ccc(Cl)cc2)nn1`, with 142 to 144 °C.
Compound `O=C(O)C1CSCN1C(=O)c1c[nH]c2ccccc12` (centres undefined) showed a melting point of 159 to 161 °C.
Then `NC(=S)C1CCCC1`, with 84 to 86 °C; and `CNC(=O)CNc1ccccc1C`, with 112 to 114 °C.
Then `O=C(NC1CCOCC1)c1ccc(Cl)nn1`, with 152 to 154 °C; and `Cc1nc2sccc2c(=O)n1N`, with 181 to 183 °C; and `O=C(Nc1ccc(C(=O)O)c(O)c1)c1cc(Cl)cc(Cl)c1`, with 268 to 270 °C.
In turn, `CCCCN(CC)c1ccc(C(=O)O)cc1` returned a melting point of 137 to 139 °C.
`Cc1nn(-c2ccccc2)c(C)c1CN` gave a melting point of 77 to 79 °C.
Then `CC(C)(F)c1nc(N)nc(Cl)n1`, with 169 to 171 °C; and `COc1ccc(CNC(=O)CCl)cc1`, with 103 to 105 °C; and `O=[N+]([O-])c1cccc(-c2nnc(CCl)o2)c1`, with 115 to 117 °C.
Turning to `NC(=S)N1CCN(c2ccccn2)CC1`, the melting point was in the range of 164 to 166 °C.
Next, `COc1c(C(=O)O)c(C)nn1C`: 172 to 174 °C; `Cc1nc(NC(=N)N)nc2ccccc12`: 339 to 341 °C.
`O=C(O)C(Oc1ccc(Br)cc1Br)c1ccccc1` (centres undefined): the melting point lay within 129 to 131 °C.
Next, `Cc1csc(-c2cccc(N)c2)n1`: 82 to 84 °C; `Cc1c(F)ccc2sc(N)nc12`: 174 to 176 °C.
Then `CCNC(=O)CC(=O)O`, with 51 to 53 °C; and `CN(CC(=O)O)C(=O)c1ccc(Br)o1`, with 110 to 112 °C.
The compound `Cc1cc(C2CCCNC2)n[nH]1` (centres undefined) came in with a melting point of 104 to 106 °C.
On to `CCOC(=O)/C(C#N)=C\Nc1ccc(OC(F)F)cc1`, for which the melting point was in the range of 101 to 103 °C.
Compound `Nc1nnc(Cc2cccc(F)c2)s1` showed a melting point of 193 to 195 °C.
Consider `Cc1ccc(N)cc1NC(=O)CN1CCCCC1`, for which the melting point fell in the range of 108 to 110 °C.
Next, `CC(C)C(Br)C(=O)N1CCCCC1` (centres undefined): 61 to 63 °C.
The compound `CCOC(=O)Cc1nc2cc(C)c(C)cc2[nH]1` showed a melting point of 169 to 171 °C.
In turn, `Cc1nn(C)c2c1NCC1CCCN21` (centres undefined) registered a melting point of 159 to 161 °C.
Then `Cc1ccc(NC(=O)c2cccc(Cl)c2)c(C(=O)O)c1`, with 191 to 193 °C; and `Nc1nc(SCCO)n[nH]1`, with 126 to 128 °C; and `OCCC1CSCCN1` (centres undefined), with 86 to 88 °C.
Next, `c1ccc(-c2nnc(-c3ccccc3)[nH]2)cc1`: 189 to 191 °C; `Cc1cc(C(=O)O)c(Cl)cc1F`: 149 to 151 °C.
`O=C(O)CCNS(=O)(=O)c1ccc(Cl)c([N+](=O)[O-])c1` came in with a melting point of 113 to 115 °C.
Next, `N#CCCNc1cccc(Cl)c1`: 141 to 143 °C; `FC(F)(F)c1ccc2nnc(S)n2c1`: 120 to 122 °C; `Cc1ccc(S(=O)(=O)N2CCN(C(=O)C(C)Cl)CC2)cc1` (centres undefined): 153 to 155 °C.
`CCC(=O)Nc1cccc(N)c1C` showed a melting point of 116 to 118 °C.
Next, `COCCNC(=O)CC#N`: 78 to 80 °C.
Next, `O=C(Nc1ccccc1F)Nc1cccc2c1CCNC2`: 157 to 159 °C.
Take `Nc1cc(C(=O)O)cc(Cl)n1`: the melting point was in the range of 289 to 291 °C.
Next, `Clc1ncc(Br)c2ccccc12`: 98 to 100 °C.
For the compound `CCN(C(C)=O)c1nc(C=O)cs1`, the melting point is 121 to 123 °C.
The compound `NS(=O)(=O)CCC(=O)O` gave a melting point of 111 to 113 °C.
Then `Cc1ncc(C=CC(=O)O)s1`, with 194 to 196 °C.
Then `NCc1cc[nH]n1`, with 58 to 60 °C; and `O=c1[nH]cnc2c(Br)cccc12`, with 317 to 319 °C.
Then `O=C(CCl)NCC(F)(F)F`, with 51 to 53 °C.
`Cc1csc(NCC(=O)O)n1` registered a melting point of 224 to 226 °C.
With `Cc1[nH]ccc1C(=O)O`, the melting point lay in the range of 167 to 169 °C.
Regarding `Oc1cccc(CNCC2CC2)c1`, the melting point was 99 to 101 °C.
Turning to `O=C1CCC(O)(c2cccc(F)c2)CC1`, the melting point fell in the range of 111 to 113 °C.
Then `CC(C)(C)OC(=O)NCC1CNc2ccccc21` (centres undefined), with 80 to 82 °C; and `COc1ccc(NS(=O)(=O)c2cc(C(=O)O)ccc2F)cc1`, with 209 to 211 °C; and `NC1(C(=O)O)CCS(=O)(=O)CC1`, with 294 to 296 °C.
Compound `CCS(=O)(=O)N1CCC(C(=O)O)CC1` returned a melting point of 143 to 145 °C.
The compound `NS(=O)(=O)CC1CCOCC1` had a melting point of 85 to 87 °C.
Next, `Cc1ccc(NCCC(N)=S)cc1`: 94 to 96 °C; `COC(=O)c1cc2cc(CBr)ccc2o1`: 108 to 110 °C; `Cc1nc(N2CCOCC2)sc1C=O`: 166 to 168 °C.
Then `CC(C)(C)OC(=O)N1CCC(O)(c2ccccc2CO)CC1`, with 106 to 108 °C; and `C=CC(=O)Nc1cccc(Cl)c1`, with 106 to 108 °C.
As to `N#Cc1ccc(NC(=O)CCCl)cc1`, the melting point is 152 to 154 °C.
Then `CN(CCS(=O)(=O)F)S(=O)(=O)c1ccc(F)cc1`, with 129 to 131 °C; and `Cc1nc(N)n(-c2ccc(C#N)cc2)n1`, with 270 to 272 °C.
Next, `Cn1ncnc1-c1cccc(N)c1`: 93 to 95 °C; `CNc1ncccc1C#N`: 87 to 89 °C.
Then `COc1cc(C#N)ccc1OCCCC(=O)O`, with 146 to 148 °C.
